This is an account of results in PubChem BioAssay (NCI).

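In this assay, cells in 96-well plates receive the compound at five concentrations for 48 hours. Endpoints are linearly interpolated between the surrounding concentrations. The concentration for 50% growth inhibition is given as GI50. TGI: concentration producing complete growth inhibition.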 A value given as a limit tells only on which side of the number the result lay.

Assay in all cases: NCI tumour cell line growth inhibition, 48 h
Assay [1] concerns NCI-H23 lung.
Assay [2] deals with OVCAR-4 ovarian.
Assay [3] deals with HOP-92 NSCLC.
The subject of assay [4] is 786-0 renal.
Assay [5] has as its system HCT-15 colon.
For assay [6], the system named is K-562 leukemia.
Assay [7] relates to MOLT-4 leukemia.
The test system of assay [8] is OVCAR-8 ovarian.
Assay [9] relates to ACHN renal.
Assay [10] concerns MALME-3M melanoma.

As for `C[C@]12CCC[C@H](Cl)C1(O)C[C@H](C(=O)O)CC2` (stereo not given in full), the TGI in assay [1], in assay [2], in assay [3], in assay [4], in [5] and in [6] was above 100 µM each time. Also, the TGI in assay [7], in [8], in [9] and in [10] was above 100 µM in each case.

For `C=C(C)[C@@H]1CC[C@]2(C)[C@H](C(=O)C=C3[C@@H]4C[C@](C)(C(=O)N5CCN(C)CC5)CC[C@]4(C)CC[C@]32C)[C@@]1(C)CCC#N`, the GI50 was 6.97 µM in assay [1]; 6.21 µM in assay [2]; 3.25 µM in [3]; 7.03 µM in assay [4]; 4.2 µM in assay [5]; 2750 nM in [6]. Moreover, the GI50 was 2950 nM in assay [7], 8.12 µM in assay [8], 7.02 µM in assay [9] and 3.94 µM in [10]. Also, the TGI in assay [1] came out at 14.3 µM; in assay [2] it was 13.6 µM; in [3], 10.2 µM; in assay [4] it was 13.7 µM; in [5], 10.9 µM; in [6] it was 9.55 µM. The TGI in assay [7] worked out at 10.9 µM; in assay [8] it was 16.2 µM; in [9], 13.5 µM; in [10], 10.6 µM.
